EC50 data for 2 compounds are collected here from patent publication US7432288B2, “Pyrrole-2,5-dione derivatives as Liver X receptor modulators” (AstraZeneca AB, priority 2003, dated 2008).

This experiment has as its target T1, LXRalpha and/or beta (human LXR ligand binding domain).
T1 construct: fused on or other part: His-tag (6xHis) on the LXR-LBD
Nature of the experiment: Co-activator recruitment assay (time-resolved fluorescence, SRC-1 peptide). Type of experiment: biochemical. The settings on record: LXR subtype (alpha or beta) not stated for these values; 22-R Hydroxycholesterol at 50 μM as 100% control; read-out: EC50 in coactivator recruitment assays. An excerpt:
The Ligand Binding Domain (LBD) of human LXRalpha (amino acid 205-447) and LXRbeta (amino acid 216-461) was produced by recombinant techniques in E coli. A fragment of the human Steroid Receptor Co-Activator-1 (SRC-1) was produced as a synthetic peptide. An anti-6His-antibody coupled with Europium (Eu^3+) was used to recognize the His-tag on the LXR-LBD and Allophycocyanin (APC) coupled to streptavidin was used to recognize the biotinylated SRC-1. Agonist binding to LXRalpha or LXRbeta enhances the affinity of LXR towards SRC-1 and thereby brings Eu^3+ and APC in close proximity. Eu^3+ is excited at 337 nm and emitts light at 620 nm. This emission, when in close proximity, excites APC to emit light at 665 nm.
Dilution plates with compounds in DMSO were further diluted in buffer {20 mM [Tris(hydroxymethyl)aminomethane] pH 7.5, 0.125% CHAPS {3-[(3-Cholamidopropyl)dimethylammonio]-1-propanesulfonate}, 2 mM DTT (Dithiothreitol) and 0.05% BSA (Bovine Serum Albumin)} in order to reduce DMSO concentration, 0.5 μl to 13.5 μl. To this, 6 μl assay mix was added and the plates (384-well V-groove plates) were incubated at room temperature for 60 to 80 min. […] Time-resolved fluorescence readings were done in a Wallac Victor reader at 665 nm followed by reading at 615 nm. […]

As to `COc1ccc(NC2=C(c3ccccc3)C(=O)N(Cc3ccc(N(C)C)cc3)C2=O)cc1` [Example 13, 1-[4-(Dimethylamino)benzyl]-3-[(4-methoxyphenyl)amino]-4-phenyl-1H-pyrrole-2,5-dione], the EC50 was 150 nM.

Consider `COc1ccc(NC2=C(c3ccccc3)C(=O)N(Cc3cc(C)on3)C2=O)cc1` [Example 22, 3-[(4-Methoxyphenyl)amino]-1-[(5-methylisoxazol-3-yl)methyl]-4-phenyl-1H-pyrrole-2,5-dione], for which the EC50 was determined as 110 nM.

A word on the EC50: it is the concentration needed to bring the measured effect to its halfway point.
